Assay results reported in ChEMBL document CHEMBL1821658, “Synthesis, antimicrobial evaluation and QSAR analysis of novel nalidixic acid based 1,2,4-triazole derivatives” (2011).
In brackets after ≈: the same amount, converted by molar mass.

What was measured:
Format in all cases: functional
[1] = system: Aspergillus niger; assay: Antifungal activity against Aspergillus niger by food poison technique; conditions: read-out: ED50 (the source's name)
[2] = system: Bacillus subtilis; assay: Antibacterial activity against Bacillus subtilis ATCC 12711 after 24 hrs by broth micro dilution assay; conditions: ATCC 12711, 24 h
[3] = system: Fusarium oxysporum; assay: Antifungal activity against Fusarium oxysporum by food poison technique; conditions: read-out: ED50 (the source's name)
[4] = system: Escherichia coli; assay: Antibacterial activity against Escherichia coli ATCC 8739 after 24 hrs by broth micro dilution assay; conditions: ATCC 8739, 24 h
[5] = system: Pseudomonas aeruginosa; assay: Antibacterial activity against Pseudomonas aeruginosa ATCC 9027 after 24 hrs by broth micro dilution assay; conditions: ATCC 9027, 24 h
[6] = system: Klebsiella pneumoniae; assay: Antibacterial activity against Klebsiella pneumoniae ATCC 31488 after 24 hrs by broth micro dilution assay; conditions: ATCC 31488, 24 h
[7] = system: Staphylococcus aureus; assay: Antibacterial activity against Staphylococcus aureus ATCC 2937 after 24 hrs by broth micro dilution assay; conditions: ATCC 2937, 24 h

Row | Structure (SMILES) | MIC90 [2] [µg/mL] | MIC90 [4] [µg/mL] | MIC90 [5] [µg/mL] | MIC90 [6] [µg/mL] | MIC90 [7] [µg/mL] | EC50 [1] [µg/mL] | EC50 [3] [µg/mL]
1 | CCn1cc(-c2nnc(S)n2N)c(=O)c2ccc(C)nc21 | 63 (≈ 208 µM) | 125 (≈ 413 µM) | 63 (≈ 208 µM) | 63 (≈ 208 µM) | 63 (≈ 208 µM) | 567 (≈ 1880 µM) | 382 (≈ 1260 µM)
2 | CCn1cc(-c2nnc(S)n2/N=C/c2ccc([N+](=O)[O-])cc2)c(=O)c2ccc(C)nc21 | 125 (≈ 287 µM) | 125 (≈ 287 µM) | 63 (≈ 145 µM) | 63 (≈ 145 µM) | 125 (≈ 287 µM) | 149 (≈ 342 µM) | 100 (≈ 230 µM)
3 | CCn1cc(-c2nnc(S)n2/N=C/c2ccc(C(F)(F)F)cc2)c(=O)c2ccc(C)nc21 | 63 (≈ 137 µM) | 250 (≈ 545 µM) | 63 (≈ 137 µM) | 125 (≈ 273 µM) | 250 (≈ 545 µM) | 299 (≈ 652 µM) | 101 (≈ 220 µM)
4 | CCOc1ccc(/C=N/n2c(S)nnc2-c2cn(CC)c3nc(C)ccc3c2=O)cc1 | 63 (≈ 145 µM) | 125 (≈ 288 µM) | 63 (≈ 145 µM) | 63 (≈ 145 µM) | 125 (≈ 288 µM) | 86.6 (≈ 199 µM) | 89.3 (≈ 206 µM)
5 | CCn1cc(-c2nnc(S)n2/N=C/c2ccc(C(C)(C)C)cc2)c(=O)c2ccc(C)nc21 | 31 (≈ 69.4 µM) | 63 (≈ 141 µM) | 63 (≈ 141 µM) | 63 (≈ 141 µM) | 125 (≈ 280 µM) | 134 (≈ 299 µM) | 117 (≈ 262 µM)
6 | CCn1cc(-c2nnc(S)n2/N=C/c2ccc(Cl)cc2Cl)c(=O)c2ccc(C)nc21 | 125 (≈ 272 µM) | 250 (≈ 544 µM) | 63 (≈ 137 µM) | 250 (≈ 544 µM) | 125 (≈ 272 µM) | 502 (≈ 1090 µM) | 103 (≈ 224 µM)
7 | CCn1cc(-c2nnc(S)n2/N=C/c2c(Cl)cccc2Cl)c(=O)c2ccc(C)nc21 | 31 (≈ 67.5 µM) | 16 (≈ 34.8 µM) | 63 (≈ 137 µM) | 125 (≈ 272 µM) | 125 (≈ 272 µM) | 101 (≈ 221 µM) | 112 (≈ 245 µM)
8 | CCn1cc(-c2nnc3sc(-c4ccccc4)nn23)c(=O)c2ccc(C)nc21 | 125 (≈ 322 µM) | 63 (≈ 162 µM) | 63 (≈ 162 µM) | 125 (≈ 322 µM) | 63 (≈ 162 µM) | 79.6 (≈ 205 µM) | 103 (≈ 265 µM)
9 | CCn1cc(-c2nnc3sc(-c4ccccc4Cl)nn23)c(=O)c2ccc(C)nc21 | 16 (≈ 37.8 µM) | 16 (≈ 37.8 µM) | 16 (≈ 37.8 µM) | 16 (≈ 37.8 µM) | 16 (≈ 37.8 µM) | 75.5 (≈ 178 µM) | 86.6 (≈ 205 µM)
10 | CCn1cc(-c2nnc3sc(-c4cccc(Cl)c4)nn23)c(=O)c2ccc(C)nc21 | 31 (≈ 73.3 µM) | 63 (≈ 149 µM) | 63 (≈ 149 µM) | 63 (≈ 149 µM) | 63 (≈ 149 µM) | 144 (≈ 342 µM) | 103 (≈ 243 µM)
11 | CCn1cc(-c2nnc3sc(-c4ccc(Cl)cc4)nn23)c(=O)c2ccc(C)nc21 | 63 (≈ 149 µM) | 63 (≈ 149 µM) | 125 (≈ 296 µM) | 125 (≈ 296 µM) | 63 (≈ 149 µM) | 514 (≈ 1210 µM) | 121 (≈ 287 µM)
12 | CCn1cc(-c2nnc3sc(-c4cccc([N+](=O)[O-])c4)nn23)c(=O)c2ccc(C)nc21 | 125 (≈ 288 µM) | 125 (≈ 288 µM) | 63 (≈ 145 µM) | 125 (≈ 288 µM) | 125 (≈ 288 µM) | 71 (≈ 164 µM) | 148 (≈ 342 µM)
13 | CCn1cc(-c2nnc3sc(-c4cccc(Cl)c4Cl)nn23)c(=O)c2ccc(C)nc21 | 63 (≈ 138 µM) | 31 (≈ 67.8 µM) | 63 (≈ 138 µM) | 63 (≈ 138 µM) | 125 (≈ 273 µM) | 109 (≈ 239 µM) | 96.9 (≈ 212 µM)
14 | CCn1cc(-c2nnc3sc(S)nn23)c(=O)c2ccc(C)nc21 | 125 (≈ 363 µM) | 63 (≈ 183 µM) | 31 (≈ 90 µM) | 63 (≈ 183 µM) | 250 (≈ 726 µM) | 92.7 (≈ 269 µM) | 267 (≈ 775 µM)
15 | CCn1cc(-c2nnc(S)n2NC(C)=O)c(=O)c2ccc(C)nc21 | 63 (≈ 183 µM) | 63 (≈ 183 µM) | 250 (≈ 726 µM) | 31 (≈ 90 µM) | 63 (≈ 183 µM) | 111 (≈ 322 µM) | 166 (≈ 481 µM)
16 | CCn1cc(-c2nnc(S)n2NC(=O)c2ccccc2)c(=O)c2ccc(C)nc21 | 63 (≈ 155 µM) | 63 (≈ 155 µM) | 63 (≈ 155 µM) | 63 (≈ 155 µM) | 63 (≈ 155 µM) | 88.5 (≈ 218 µM) | 110 (≈ 270 µM)
17 | CCn1cc(-c2nnc3n2N=C(c2ccccc2)CS3)c(=O)c2ccc(C)nc21 | 125 (≈ 311 µM) | 125 (≈ 311 µM) | 125 (≈ 311 µM) | 63 (≈ 157 µM) | 63 (≈ 157 µM) | 148 (≈ 369 µM) | 144 (≈ 359 µM)
18 | CCn1cc(-c2nnc3sc(=O)c(=O)[nH]n23)c(=O)c2ccc(C)nc21 | 125 (≈ 351 µM) | 125 (≈ 351 µM) | 125 (≈ 351 µM) | 63 (≈ 177 µM) | 250 (≈ 702 µM) | 348 (≈ 975 µM) | 164 (≈ 461 µM)
19 | CCn1cc(-c2nnc(S)[nH]2)c(=O)c2ccc(C)nc21 | 31 (≈ 108 µM) | 63 (≈ 219 µM) | 125 (≈ 435 µM) | 63 (≈ 219 µM) | 63 (≈ 219 µM) | 76 (≈ 265 µM) | 111 (≈ 387 µM)
20 | O=C(O)c1cn(C2CC2)c2cc(N3CCNCC3)c(F)cc2c1=O [CIPROFLOXACIN] | 12.5 (≈ 37.7 µM) | 12.5 (≈ 37.7 µM) | 1.25 (≈ 3.77 µM) | 2.5 (≈ 7.54 µM) | 10 (≈ 30.2 µM) |  | 
21 | CN[C@@H]1[C@H](O[C@H]2[C@H](O[C@H]3[C@H](O)[C@@H](O)[C@H](N=C(N)N)[C@@H](O)[C@@H]3N=C(N)N)O[C@@H](C)[C@]2(O)C=O)O[C@@H](CO)[C@H](O)[C@H]1O [STREPTOMYCIN] | 5 (≈ 8.6 µM) | 13 (≈ 22.4 µM) | 4 (≈ 6.88 µM) | 2 (≈ 3.44 µM) | 15 (≈ 25.8 µM) |  | 

More lines, main results first:

Row | MIC90 [2] [µg/mL] | MIC90 [4] [µg/mL] | MIC90 [5] [µg/mL] | MIC90 [6] [µg/mL] | MIC90 [7] [µg/mL] | Structure (SMILES) | EC50 [1] [µg/mL] | EC50 [3] [µg/mL]
22 | 250 (≈ 533 µM) | 250 (≈ 533 µM) | 62 (≈ 132 µM) | 250 (≈ 533 µM) | 125 (≈ 266 µM) | CCn1cc(-c2nnc(S)n2/N=C/c2ccc(Br)cc2)c(=O)c2ccc(C)nc21 | 144 (≈ 306 µM) | 107 (≈ 227 µM)
23 | 250 (≈ 640 µM) | 16 (≈ 41 µM) | 16 (≈ 41 µM) | 16 (≈ 41 µM) | 250 (≈ 640 µM) | CCn1cc(-c2nnc(S)n2/N=C/c2ccccc2)c(=O)c2ccc(C)nc21 | 77.7 (≈ 199 µM) | 78.2 (≈ 200 µM)
24 | 63 (≈ 154 µM) | 250 (≈ 612 µM) | 16 (≈ 39.2 µM) | 250 (≈ 612 µM) | 125 (≈ 306 µM) | CCn1cc(-c2nnc(S)n2/N=C/c2ccc(F)cc2)c(=O)c2ccc(C)nc21 | 134 (≈ 327 µM) | 163 (≈ 400 µM)
25 | 16 (≈ 37.7 µM) | 250 (≈ 588 µM) | 16 (≈ 37.7 µM) | 250 (≈ 588 µM) | 125 (≈ 294 µM) | CCn1cc(-c2nnc(S)n2/N=C/c2ccc(Cl)cc2)c(=O)c2ccc(C)nc21 | 120 (≈ 282 µM) | 79.5 (≈ 187 µM)
26 | 16 (≈ 34.1 µM) | 125 (≈ 266 µM) | 16 (≈ 34.1 µM) | 31 (≈ 66 µM) | 125 (≈ 266 µM) | CCn1cc(-c2nnc(S)n2/N=C/c2cccc(Br)c2)c(=O)c2ccc(C)nc21 | 111 (≈ 237 µM) | 74.1 (≈ 158 µM)
27 | 125 (≈ 287 µM) | 125 (≈ 287 µM) | 63 (≈ 145 µM) | 250 (≈ 574 µM) | 125 (≈ 287 µM) | CCn1cc(-c2nnc(S)n2/N=C/c2cccc([N+](=O)[O-])c2)c(=O)c2ccc(C)nc21 | 161 (≈ 369 µM) | 138 (≈ 317 µM)
28 | 63 (≈ 152 µM) | 125 (≈ 301 µM) | 63 (≈ 152 µM) | 63 (≈ 152 µM) | 63 (≈ 152 µM) | CCn1cc(-c2nnc(S)n2/N=C/c2ccc(C#N)cc2)c(=O)c2ccc(C)nc21 | 156 (≈ 376 µM) | 177 (≈ 426 µM)
29 | 125 (≈ 308 µM) | 125 (≈ 308 µM) | 63 (≈ 155 µM) | 125 (≈ 308 µM) | 125 (≈ 308 µM) | CCn1cc(-c2nnc(S)n2/N=C/c2ccc(O)cc2)c(=O)c2ccc(C)nc21 | 549 (≈ 1350 µM) | 203 (≈ 500 µM)
30 | 16 (≈ 38.1 µM) | 250 (≈ 595 µM) | 16 (≈ 38.1 µM) | 31 (≈ 73.7 µM) | 125 (≈ 297 µM) | CCn1cc(-c2nnc(S)n2/N=C/c2ccc(OC)cc2)c(=O)c2ccc(C)nc21 | 105 (≈ 249 µM) | 152 (≈ 362 µM)
31 | 125 (≈ 309 µM) | 125 (≈ 309 µM) | 63 (≈ 156 µM) | 63 (≈ 156 µM) | 63 (≈ 156 µM) | CCn1cc(-c2nnc(S)n2/N=C/c2ccc(C)cc2)c(=O)c2ccc(C)nc21 | 76.6 (≈ 189 µM) | 205 (≈ 507 µM)
32 | 63 (≈ 151 µM) | 250 (≈ 597 µM) | 63 (≈ 151 µM) | 63 (≈ 151 µM) | 63 (≈ 151 µM) | CCc1ccc(/C=N/n2c(S)nnc2-c2cn(CC)c3nc(C)ccc3c2=O)cc1 | 229 (≈ 547 µM) | 191 (≈ 456 µM)
33 | 16 (≈ 37 µM) | 250 (≈ 578 µM) | 16 (≈ 37 µM) | 125 (≈ 289 µM) | 63 (≈ 146 µM) | CCn1cc(-c2nnc(S)n2/N=C/c2ccc(C(C)C)cc2)c(=O)c2ccc(C)nc21 | 113 (≈ 262 µM) | 106 (≈ 246 µM)
34 | 16 (≈ 36.9 µM) | 63 (≈ 145 µM) | 16 (≈ 36.9 µM) | 63 (≈ 145 µM) | 125 (≈ 288 µM) | CCn1cc(-c2nnc(S)n2/N=C/c2ccc(N(C)C)cc2)c(=O)c2ccc(C)nc21 | 101 (≈ 233 µM) | 104 (≈ 239 µM)
35 | 125 (≈ 286 µM) | 250 (≈ 573 µM) | 63 (≈ 144 µM) | 63 (≈ 144 µM) | 250 (≈ 573 µM) | CCn1cc(-c2nnc(S)n2/N=C/c2ccc(SC)cc2)c(=O)c2ccc(C)nc21 | 251 (≈ 574 µM) | 104 (≈ 239 µM)
